Source: patent publication US20100099561A1, “HETEROBICYCLIC ALKYLTHIO-BRIDGED ISOXAZOLINES” (E.I. DU PONT DE NEMOURS AND COMPANY, priority 2008, published 2010)

Key:
Assay type in all cases: in vivo
[1] = test system: large crabgrass (Digitaria sanguinalis); experiment: Test A preemergence, large crabgrass; conditions: 0 to 100 scale (0 no effect, 100 complete control)
How it was run: (§1)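 In a greenhouse, loam–sand potted species were treated with surfactant-formulated compound, preemergence via directed soil spray and postemergence at 2–10 cm height, one- to two-leaf stage. Response assessed visually at about ten days; 100 means complete control.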

[2] = test system: giant foxtail (Setaria faberi); experiment: Test A preemergence, giant foxtail; conditions: 0 to 100 scale (0 no effect, 100 complete control)
How it was run: as §1

[3] = test system: morningglory (Ipomoea spp.); experiment: Test A preemergence, morningglory; conditions: 0 to 100 scale (0 no effect, 100 complete control)
How it was run: as §1

[4] = test system: pigweed (Amaranthus retroflexus); experiment: Test A preemergence, pigweed; conditions: 500 g ai/ha, 0 to 100 scale (0 no effect, 100 complete control)
How it was run: as §1

[5] = test system: velvetleaf (Abutilon theophrasti); experiment: Test A preemergence, velvetleaf; conditions: 0 to 100 scale (0 no effect, 100 complete control)
How it was run: as §1

[6] = test system: wheat (Triticum aestivum); experiment: Test A preemergence, wheat; conditions: 0 to 100 scale (0 no effect, 100 complete control)
How it was run: as §1

[7] = test system: large crabgrass (Digitaria sanguinalis); experiment: Test A postemergence, large crabgrass; conditions: 0 to 100 scale (0 no effect, 100 complete control)
How it was run: as §1

[8] = test system: giant foxtail (Setaria faberi); experiment: Test A postemergence, giant foxtail; conditions: 0 to 100 scale (0 no effect, 100 complete control)
How it was run: as §1

[9] = test system: pigweed (Amaranthus retroflexus); experiment: Test A postemergence, pigweed; conditions: 0 to 100 scale (0 no effect, 100 complete control)
How it was run: as §1

[10] = test system: velvetleaf (Abutilon theophrasti); experiment: Test A postemergence, velvetleaf; conditions: 0 to 100 scale (0 no effect, 100 complete control)
How it was run: as §1

[11] = test system: wheat (Triticum aestivum); experiment: Test A postemergence, wheat; conditions: 0 to 100 scale (0 no effect, 100 complete control)
How it was run: as §1

[12] = test system: wheat (Triticum aestivum); experiment: Test B preemergence, wheat; conditions: Preemergence, scale 0 to 100
Description: (§2) Seeds of plant species selected from blackgrass (Alopecurus myosuroides), downy bromegrass (Bromus tectorum), green foxtail (Setaria viridis), Italian ryegrass (Lolium multiflorum), wheat (Triticum aestivum), wild oat (Avena fatua), catchweed bedstraw (Galium aparine), bermudagrass (Cynodon dactylon), Surinam grass (Brachiaria decumbens), cocklebur (Xanthium strumarium), corn (Zea mays), large crabgrass (Digitaria sanguinalis), woolly cupgrass (Eriochloa villosa), giant foxtail (Setaria faberii), goosegrass (Eleusine indica), johnsongrass (Sorghum halepense), kochia (Kochia scoparia), lambsquarters (Chenopodium album), morningglory (Ipomoea coccinea), nightshade (eastern black nightshade, Solanum ptycanthum), yellow nutsedge (Cyperus esculentus), pigweed (Amaranthus retroflexus), ragweed (common ragweed, Ambrosia elatior), soybean (Glycine max), sunflower (common oilseed sunflower, Helianthus annuus), Russian thistle (Salsola kali), and velvetleaf (Abutilon theophrasti) were planted into a blend of loam soil and sand and treated preemergence with test compounds formulated in a non-phytotoxic solvent mixture which included a surfactant. Treated plants and controls were maintained in a greenhouse for 13 to 15 days, after which time all species were compared to controls and visually evaluated. Plant response ratings, summarized in Table B, are based on a scale of 0 to 100 where 0 is no effect and 100 is complete control. A dash (-) response means no test result.

[13] = test system: wild oat (Avena fatua); experiment: Test B preemergence, wild oat; conditions: scale 0 to 100
Description: as §2

[14] = test system: corn (Zea mays); experiment: Test B preemergence, corn; conditions: scale 0 to 100
Description: as §2

[15] = test system: giant foxtail (Setaria faberii); experiment: Test B preemergence, giant foxtail; conditions: scale 0 to 100
Description: as §2

[16] = test system: johnsongrass (Sorghum halepense); experiment: Test B preemergence, johnsongrass; conditions: scale 0 to 100
Description: as §2

[17] = test system: morningglory (Ipomoea coccinea); experiment: Test B preemergence, morningglory; conditions: scale 0 to 100
Description: as §2

[18] = test system: nightshade (eastern black nightshade, Solanum ptycanthum); experiment: Test B preemergence, nightshade; conditions: scale 0 to 100
Description: as §2

[19] = test system: rice (Oryza sativa); experiment: Test B flooded paddy test, rice; conditions: Flood, scale 0 to 100
How it was run: (§3)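 2-leaf plants; pots flooded 3 cm above soil; compound added to paddy water; depth maintained. Greenhouse 13–15 d. Visual rating vs controls, 0 (no effect) to 100 (complete control); dash = no result.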

[20] = test system: ducksalad (Heteranthera limosa); experiment: Test B flooded paddy test, ducksalad; conditions: Flood, scale 0 to 100
How it was run: as §3

CC1(C)CC(S(=O)(=O)Cc2c(C(F)(F)F)nc3ccsn3c2=O)=NO1 [Compound 16]
Plant response rating, Crabgrass, Large ([1]; 125 g ai/ha): 90
Plant response rating, Crabgrass, Large ([1]; 500 g ai/ha): 90
Plant response rating, Foxtail, Giant ([2]; 125 g ai/ha): 90
Plant response rating, Foxtail, Giant ([2]; 500 g ai/ha): 90
Plant response rating, Morningglory ([3]; 125 g ai/ha): 70
Plant response rating, Morningglory ([3]; 500 g ai/ha): 80
Plant response rating, Pigweed [4]: 100
Plant response rating, Velvetleaf ([5]; 125 g ai/ha): 50
Plant response rating, Velvetleaf ([5]; 500 g ai/ha): 60
Plant response rating, Wheat ([6]; 125 g ai/ha): 0
Plant response rating, Wheat ([6]; 500 g ai/ha): 0
Plant response rating, Crabgrass, Large ([7]; 125 g ai/ha): 80
Plant response rating, Crabgrass, Large ([7]; 500 g ai/ha): 90
Plant response rating, Foxtail, Giant ([8]; 125 g ai/ha): 80
Plant response rating, Foxtail, Giant ([8]; 500 g ai/ha): 90
Plant response rating, Pigweed ([9]; 125 g ai/ha): 10
Plant response rating, Pigweed ([9]; 500 g ai/ha): 50
Plant response rating, Velvetleaf ([10]; 125 g ai/ha): 30
Plant response rating, Velvetleaf ([10]; 500 g ai/ha): 60
Plant response rating, Wheat ([11]; 125 g ai/ha): 0
Plant response rating, Wheat ([11]; 500 g ai/ha): 50
Plant response rating, Wheat ([12]; 16 g ai/ha): 0
Plant response rating, Wheat ([12]; 31 g ai/ha): 0
Plant response rating, Wheat ([12]; 62 g ai/ha): 0
Plant response rating, Wheat ([12]; 125 g ai/ha): 0
Plant response rating, Oat, Wild ([13]; 16 g ai/ha): 0
Plant response rating, Oat, Wild ([13]; 31 g ai/ha): 20
Plant response rating, Oat, Wild ([13]; 62 g ai/ha): 30
Plant response rating, Oat, Wild ([13]; 125 g ai/ha): 60
Plant response rating, Corn ([14]; 16 g ai/ha): 0
Plant response rating, Corn ([14]; 31 g ai/ha): 0
Plant response rating, Corn ([14]; 62 g ai/ha): 0
Plant response rating, Corn ([14]; 125 g ai/ha): 0
Plant response rating, Foxtail, Giant ([15]; 16 g ai/ha): 0
Plant response rating, Foxtail, Giant ([15]; 31 g ai/ha): 80
Plant response rating, Foxtail, Giant ([15]; 62 g ai/ha): 90
Plant response rating, Foxtail, Giant ([15]; 125 g ai/ha): 98
Plant response rating, Johnsongrass ([16]; 16 g ai/ha): 0
Plant response rating, Johnsongrass ([16]; 31 g ai/ha): 45
Plant response rating, Johnsongrass ([16]; 62 g ai/ha): 85
Plant response rating, Johnsongrass ([16]; 125 g ai/ha): 95
Plant response rating, Morningglory ([17]; 16 g ai/ha): 0
Plant response rating, Morningglory ([17]; 31 g ai/ha): 0
Plant response rating, Morningglory ([17]; 62 g ai/ha): 0
Plant response rating, Morningglory ([17]; 125 g ai/ha): 0
Plant response rating, Nightshade ([18]; 16 g ai/ha): 0
Plant response rating, Nightshade ([18]; 31 g ai/ha): 0
Plant response rating, Nightshade ([18]; 62 g ai/ha): 85
Plant response rating, Nightshade ([18]; 125 g ai/ha): 95
Plant response rating, Rice ([19]; 62 g ai/ha): 0
Plant response rating, Rice ([19]; 250 g ai/ha): 0
Plant response rating, Ducksalad ([20]; 62 g ai/ha): 40
Plant response rating, Ducksalad ([20]; 250 g ai/ha): 40
